Source: PubChem BioAssay AID248 (DTP/NCI, 2004)
Where “and” joins values, the source holds several entries; their conditions need not be identical. Equal values may be shown once. Inconclusive results and toxic doses are left out. Rule as the data show it: active = T/C of 150% or more; inactive = T/C below 125%.

Tested on: L1210 leukemia ip in BDF1 mice, survival T/C
Assay: NCI In Vivo Anticancer Drug Screen. Data for tumor model L1210 Leukemia (intraperitoneal) in B6D2F1 (BDF1) mice
Details: endpoint: mean survival time, higher = longer survival
Method in brief: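 Tumor was transplanted into mice, which were then dosed with test compound or vehicle alone. Survival was recorded for each group, and the treated figure was expressed relative to the control figure.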

[1] = dose: 50.0 mg/kg/injection, schedule: Q01DX009 (ip), vehicle: saline with Tween-80
[2] = dose: 100.0 mg/kg/injection, schedule: Q01DX009 (ip), vehicle: saline with Tween-80
[3] = dose: 100.0 mg/kg/injection, schedule: Q04DX002 (ip), vehicle: Klucel (hydroxypropylcellulose) (HPC)
[4] = dose: 100.0 mg/kg/injection, schedule: Q01DX009 (ip), vehicle: saline
[5] = dose: 200.0 mg/kg/injection, schedule: Q01DX009 (ip), vehicle: saline
[6] = dose: 400.0 mg/kg/injection, schedule: Q01DX009 (ip), vehicle: saline
[7] = dose: 100.0 mg/kg/injection, schedule: Q01DX009 (ip), vehicle: Klucel (hydroxypropylcellulose) (HPC)
[8] = dose: 200.0 mg/kg/injection, schedule: Q01DX009 (ip), vehicle: Klucel (hydroxypropylcellulose) (HPC)
[9] = dose: 400.0 mg/kg/injection, schedule: Q01DX009 (ip), vehicle: Klucel (hydroxypropylcellulose) (HPC)
[10] = dose: 100.0 mg/kg/injection, schedule: Q04DX003 (ip), vehicle: Klucel (hydroxypropylcellulose) (HPC)
[11] = dose: 200.0 mg/kg/injection, schedule: Q04DX003 (ip), vehicle: Klucel (hydroxypropylcellulose) (HPC)
[12] = dose: 400.0 mg/kg/injection, schedule: Q04DX003 (ip), vehicle: Klucel (hydroxypropylcellulose) (HPC)
[13] = dose: 50.0 mg/kg/injection, schedule: Q01DX009 (ip), vehicle: saline
[14] = dose: 100.0 mg/kg/injection, schedule: Q04DX003 (ip), vehicle: saline
[15] = dose: 200.0 mg/kg/injection, schedule: Q04DX003 (ip), vehicle: saline
[16] = dose: 100.0 mg/kg/injection, schedule: Q01DX001 (ip), vehicle: carboxymethylcellulose (CMC)
[17] = dose: 25.0 mg/kg/injection, schedule: Q01DX009 (ip), vehicle: saline with Tween-80

Measured: T/C

CC(=O)OC1CCC(N)CC1 (stereo unspecified)
inactive: dose: 100.0 mg/kg/injection, schedule: Q01DX001 (ip), vehicle: other 98 % of control | dose: 200.0 mg/kg/injection, schedule: Q01DX001 (ip), vehicle: other 96 % of control | dose: 400.0 mg/kg/injection, schedule: Q01DX001 (ip), vehicle: other 96 % of control

CCOC(=O)N/N=C\c1cc(OC)c(OC)c(OC)c1
inactive: [1] 103 % of control | [2] 98 % of control | dose: 100.0 mg/kg/injection, schedule: Q04DX003 (ip), vehicle: saline with Tween-80 102 % of control | dose: 200.0 mg/kg/injection, schedule: Q04DX003 (ip), vehicle: saline with Tween-80 103 % of control

S=C(Cc1cc(Cl)ccc1Cl)N1CCOCC1
inactive: [3] 95 % of control | dose: 200.0 mg/kg/injection, schedule: Q04DX002 (ip), vehicle: Klucel (hydroxypropylcellulose) (HPC) 109 % of control | dose: 400.0 mg/kg/injection, schedule: Q04DX002 (ip), vehicle: Klucel (hydroxypropylcellulose) (HPC) 98 % of control

NC(C1SCCS1)C(O)C(O)C(O)CO (stereo unspecified)
inactive: [4] 98 % of control | [5] 91 % of control | [6] 96 % of control

O=C(O)c1cccc2c1oc1c(O)cccc12
inactive: dose: 25.0 mg/kg/injection, schedule: Q04DX002 (ip), vehicle: Klucel (hydroxypropylcellulose) (HPC) 93 % of control | dose: 50.0 mg/kg/injection, schedule: Q04DX002 (ip), vehicle: Klucel (hydroxypropylcellulose) (HPC) 90 % of control | [3] 93 % of control

CC(=O)Nc1cc(Cl)c(Cl)cc1N
inactive: [7] 95 % of control | [8] 98 % of control | [9] 96 % of control

CC#CS(=O)(=O)c1ccccc1
inactive: [10] 94 % of control | [11] 95 % of control | [12] 98 % of control

C1=CCC2CN(CCCN3CCOCC3)CC2C1 (stereo unspecified)
inactive: dose: 100.0 mg/kg/injection, schedule: Q01DX001 (ip), vehicle: saline with Tween-80 103 % of control | dose: 200.0 mg/kg/injection, schedule: Q01DX001 (ip), vehicle: saline with Tween-80 108 % of control | dose: 400.0 mg/kg/injection, schedule: Q01DX001 (ip), vehicle: saline with Tween-80 105 % of control

CC1(C)OCC(=NNC(N)=O)CO1
inactive: [13] 96 % of control | [4] 93 % of control | [14] 90 % of control | [15] 90 % of control

O=C1c2ccccc2-c2cc(S)ccc21
inactive: [16] 109 % of control | dose: 200.0 mg/kg/injection, schedule: Q01DX001 (ip), vehicle: carboxymethylcellulose (CMC) 104 % of control | dose: 400.0 mg/kg/injection, schedule: Q01DX001 (ip), vehicle: carboxymethylcellulose (CMC) 101 % of control

[Se]c1ncnc2nc[nH]c12
inactive: dose: 25.0 mg/kg/injection, schedule: Q01DX001 (ip), vehicle: carboxymethylcellulose (CMC) 103 % of control | dose: 50.0 mg/kg/injection, schedule: Q01DX001 (ip), vehicle: carboxymethylcellulose (CMC) 93 % of control | [16] 121 % of control

O=C1CC(=O)N2C=CC=CC2=N1
inactive: [4] 101 % of control | [5] 95 % of control | [6] 92 % of control

CC1=CC(OC2CCCCO2)C2CC1C2(C)C (stereo unspecified)
inactive: [7] 97 % of control | [10] 98 % of control | [8] 103 % of control | [11] 95 % of control | [9] 92 % of control | [12] 93 % of control

Cc1ccc(S(=O)(=O)N(C)c2ccc(CC(=O)O)cc2)cc1
inactive: [10] 97 % of control | [11] 95 % of control | [12] 95 % of control

c1c[nH]cn1
inactive: [13] 93 % of control | [4] 101 % of control and 90 % of control | [14] 97 % of control | [5] 96 % of control and 90 % of control | [15] 97 % of control | [6] 103 % of control | dose: 400.0 mg/kg/injection, schedule: Q04DX003 (ip), vehicle: saline 94 % of control

CN1CCC(=O)c2ccccc21
inactive: dose: 75.0 mg/kg/injection, schedule: Q01DX001 (ip), vehicle: other 97 % of control | dose: 150.0 mg/kg/injection, schedule: Q01DX001 (ip), vehicle: other 100 % of control | dose: 300.0 mg/kg/injection, schedule: Q01DX001 (ip), vehicle: other 100 % of control

N#CC(C(=O)Nc1cccc(C(F)(F)F)c1)C(=S)Nc1ccccc1Cl (stereo unspecified)
inactive: dose: 25.0 mg/kg/injection, schedule: Q04DX002 (ip), vehicle: saline with Tween-80 102 % of control | dose: 50.0 mg/kg/injection, schedule: Q04DX002 (ip), vehicle: saline with Tween-80 105 % of control | dose: 100.0 mg/kg/injection, schedule: Q04DX002 (ip), vehicle: saline with Tween-80 101 % of control and 105 % of control

O=C(NC(=O)C(Cl)Cl)Nc1cccc2c1Cc1ccccc1-2
inactive: dose: 50.0 mg/kg/injection, schedule: Q04DX003 (ip), vehicle: Klucel (hydroxypropylcellulose) (HPC) 105 % of control | dose: 100.0 mg/kg/injection, schedule: Q01DX001 (ip), vehicle: Klucel (hydroxypropylcellulose) (HPC) 100 % of control | [7] 98 % of control | [10] 96 % of control and 101 % of control | dose: 200.0 mg/kg/injection, schedule: Q01DX001 (ip), vehicle: Klucel (hydroxypropylcellulose) (HPC) 89 % of control | [8] 93 % of control | [11] 100 % of control | dose: 400.0 mg/kg/injection, schedule: Q01DX001 (ip), vehicle: Klucel (hydroxypropylcellulose) (HPC) 94 % of control | [9] 93 % of control | [12] 90 % of control and 92 % of control

CCC[CH2][Sn]1([CH2]CCC)[CH]=CCC=[C]1C
inactive: dose: 6.25 mg/kg/injection, schedule: Q01DX009 (ip), vehicle: saline with Tween-80 93 % of control | dose: 12.5 mg/kg/injection, schedule: Q01DX009 (ip), vehicle: saline with Tween-80 93 % of control | [17] 101 % of control and 89 % of control

OCC1CC(n2cnc3c(NO)ncnc32)C(O)C1O (stereo unspecified)
inactive: [17] 103 % of control | [1] 92 % of control | dose: 75.0 mg/kg/injection, schedule: Q01DX009 (ip), vehicle: saline with Tween-80 86 % of control

CCOc1ccc(/C=N/NC(=O)Cc2cccc3ccccc23)cc1OC
inactive: [7] 95 % of control | [8] 98 % of control | [9] 97 % of control

CCOC1=NN(c2ccccc2)C(=O)C1
inactive: [2] 104 % of control | dose: 200.0 mg/kg/injection, schedule: Q01DX009 (ip), vehicle: saline with Tween-80 101 % of control | dose: 400.0 mg/kg/injection, schedule: Q01DX009 (ip), vehicle: saline with Tween-80 97 % of control

CC(O)CN(CCN(CC(C)O)CC(C)O)CCN(CC(C)O)CC(C)O.O=S(=O)([O-])[O-].[Cu+2] (stereo unspecified)
inactive: dose: 5.0 mg/kg/injection, schedule: Q01DX001 (ip), vehicle: saline 102 % of control | dose: 10.0 mg/kg/injection, schedule: Q01DX001 (ip), vehicle: saline 91 % of control

C1=NN=C2C=C3CCc4ccccc4C3CC12 (stereo unspecified)
inactive: dose: 100.0 mg/kg/injection, schedule: Q01DX001 (ip), vehicle: acetone 93 % of control | dose: 200.0 mg/kg/injection, schedule: Q01DX001 (ip), vehicle: acetone 96 % of control
